Experimental data: patent publication US20240391870A1 (Arcturus Therapeutics, Inc., priority 2023, published 2024)

Tests used:
factor VII = experiment: Factor VII knock down evaluation (LNP with FVII siRNA); format: in vivo, Balb/C mice; settings: Table 3; 0.03 mg/kg
In short: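 Female Balb/C mice, 7–8 weeks old, received FVII siRNA lipid nanoparticles intravenously at 0.03 or 0.01 mg/kg. Plasma was collected 48 h later and FVII protein measured by chromogenic assay at 405 nm against a control plasma calibration curve. Levels are relative to saline-treated controls.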

[1] = Lipid nanoparticle size, PDI and encapsulation; format: physicochemical; settings: Table 3; for Size (nm): lipid nanoparticle; for EE %: lipid nanoparticle encapsulation
Experimental: In the context of nucleic acids, full encapsulation may be determined by performing a membrane-impermeable fluorescent dye exclusion assay, which uses a dye that has enhanced fluorescence when associated with nucleic acid. Encapsulation is determined by adding the dye to a lipid formulation, measuring the resulting fluorescence, and comparing it to the fluorescence observed upon addition of a small amount of nonionic detergent. Detergent-mediated disruption of the lipid layer releases the encapsulated nucleic acid, allowing it to interact with the membrane-impermeable dye. Nucleic acid encapsulation may be calculated as E=(I0−I)/I0, where I and I0 refer to the fluorescence intensities before and after the addition of detergent.

[2] = Lipid nanoparticle size, PDI and encapsulation; format: physicochemical; settings: Table 3
[3] = Measured pKa in the indicated formulation
Experimental: Measured pKa values were determined based on the pH measured in the indicated formulation (i.e., EPO or FVII formulation).

hEPO = hEPO mRNA expression evaluation (hEPO-LNPs); format: in vivo, Balb/c mice; settings: Table 3; 0.3 mg/kg
[4] = In vivo biodegradability assay (lipid in liver); settings: Table 3; liver tissue, 0.3 mg/kg dose
Experimental: In vivo biodegradability assay was performed to assess the biodegradability of lipids in the LNP. Briefly, mice were injected with either 0.1 or 0.03 mg/Kg dose and after 24 or 48 hours mice livers were collected. To measure the concentration of lipids in the mouse liver, liver samples were homogenized in appropriate buffer in 1-10 dilution and mixed with the same amount of stabilized plasma. The samples were then mixed with organic solvents spiked with internal standard to precipitate proteins. After centrifugation, supernatant was diluted further with organic solvent before sample analysis by LC-MS. In LC-MS analysis, positive electrospray ionization was used, and multiple reaction monitoring (MRM) parameters were set up to specifically target the lipid analyte and internal standard. Calibration standards were prepared in stabilized plasma and mixed with same amount of homogenization buffer before protein precipitation. Quality control samples with known amounts of lipid was prepared in blank liver homogenate to monitor the precision and accuracy of the assay.

Size (nm) [1]	EE % [1]	PDI [2]	pKa [3]	Invivo lipid degradability ng/g of Liver tissue @ 0.3 mg/kg dose [4]	Compound	FVII KD % @ 0.03 mg/kg (factor VII)	EPO expression in ng/mL @ 0.3 mg/kg (hEPO)
78.98 nm	94.3%	0.065	6.52	BLOQ	CN(C)CCCC(=O)OC(CCCC(=O)OC(COC(=O)CCC1CCCCC1)COC(=O)CCC1CCCCC1)CCCC(=O)OC(COC(=O)CCC1CCCCC1)COC(=O)CCC1CCCCC1 [Lipid 57, bis(1,3-bis((3-cyclohexylpropanoyl)oxy)propan-2-yl) 5-((4-(dimethylamino)butanoyl)oxy)nonanedioate]	–	21737.69 ng/mL
74.77 nm	92.1%	0.068	6.37	BLOQ	CN(C)CCCC(=O)OC(CCCCCC(=O)OC(COC(=O)CCC1CCCCC1)COC(=O)CCC1CCCCC1)CCCCCC(=O)OC(COC(=O)CCC1CCCCC1)COC(=O)CCC1CCCCC1 [Lipid 59, bis(1,3-bis((3-cyclohexylpropanoyl)oxy)propan-2-yl) 7-((4-(dimethylamino)butanoyl)oxy)tridecanedioate]	–	14723.72 ng/mL
70.09 nm	93.4%	0.081	6.49	BLOQ	CN(C)CCCC(=O)OC(CCCC(=O)OC(COC(=O)CCCC1CCCCC1)COC(=O)CCCC1CCCCC1)CCCC(=O)OC(COC(=O)CCCC1CCCCC1)COC(=O)CCCC1CCCCC1	–	19337.84 ng/mL

Further lines, the compound ahead of its results:

Compound	Size (nm) [1]	EE % [1]	PDI [2]	pKa [3]	Invivo lipid degradability ng/g of Liver tissue @ 0.3 mg/kg dose [4]	FVII KD % @ 0.03 mg/kg (factor VII)	EPO expression in ng/mL @ 0.3 mg/kg (hEPO)
CC1CCC(CCC(=O)OCC(C)(COC(=O)CCC2CCC(C)CC2)COC(=O)CCN(CCC(=O)OCC(C)(COC(=O)CCC2CCC(C)CC2)COC(=O)CCC2CCC(C)CC2)C(=O)CCCCN(C)C)CC1 (centres unmarked) [Lipid 49, (((3,3′-((5-(dimethylamino)pentanoyl)azanediyl)bis (propanoyl))bis(oxy))bis(methylene))bis(2-methylpropane-2,1,3-triyl)tetrakis(3-(4-methylcyclohexyl)propanoate)]	97.23 nm	98.9%	0.028	7.5	–	3.57%	–
CN(C)CCCC(=O)OC(CCCC(=O)OCC(C)(COC(=O)CCC1CCCCC1)COC(=O)CCC1CCCCC1)CCCC(=O)OCC(C)(COC(=O)CCC1CCCCC1)COC(=O)CCC1CCCCC1 [Lipid 62, bis(3-((3-cyclohexylpropanoyl)oxy)-2-(((3-cyclohexylpropanoyl)oxy)methyl)-2-methylpropyl) 5-((4-(dimethylamino)butanoyl)oxy)nonanedioate]	72.43 nm	95.3%	0.056	6.64	6880 ng/g	–	2930.66 ng/mL
CN(C)CCCC(=O)OC(CCCC(=O)OCC(COC(=O)CCC1CCCCC1)COC(=O)CCC1CCCCC1)CCCC(=O)OCC(COC(=O)CCC1CCCCC1)COC(=O)CCC1CCCCC1 [Lipid 61, bis(3-((3-cyclohexylpropanoyl)oxy)-2-(((3-cyclohexylpropanoyl)oxy)methyl)propyl)5-((4-(dimethylamino)butanoyl)oxy)nonanedioate]	70.54 nm	95.3%	0.064	6.84	BLOQ	–	4238.52 ng/mL
CCCCC(C)(C)CC(=O)OCC(C)(COC(=O)CCC(CCC(=O)OCC(C)(COC(=O)CC(C)(C)CCCC)COC(=O)CC(C)(C)CCCC)OC(=O)CCCN(C)C)COC(=O)CC(C)(C)CCCC [Lipid 60, bis(3-((3,3-dimethylheptanol)oxy)-2-(((3,3-dimethylheptanol)oxy)methyl)-2-methylpropyl) 4-((4-(dimethylamino)butanoyl)oxy)heptanedioate]	65.95 nm	93.9%	0.087	6.28	53300 ng/g	–	1631.03 ng/mL
